Each structure is given as a SMILES string. Several values for one entry are separate records, joined by “and”; a condition that tells them apart may be missing. Equal entries are not always repeated.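 Grown in 96-well plates, cells were treated for 48 hours with each compound at five concentrations. Insufficient inhibition: endpoint recorded as highest concentration tested. GI50: concentration for 50% inhibition of growth. TGI is the concentration that stops growth completely.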

The first assay concerns LOX IMVI melanoma. Kind of assay: NCI-60 cell line screen, 48 h.
As to `COc1cccc(/C=C2\CCC(C)(CN(C)C)C2=O)c1` (stereo not given), the TGI is > 100 µM.

As to `Cl[Si]1(Cl)Oc2ccccc2O[Si](Cl)(Cl)Oc2ccccc2O1`, the TGI stood at 36.5 µM.

On to `C[n+]1c2ccccc2cc2c(CNC(CCCN=C(N)N)C(=O)O)cccc21` (stereo not given), for which the TGI worked out at 1.92 µM.

For `CC(=O)[O-].CC(=O)[O-].CC(=O)[O-].CC(=O)[O-].[Mo+2].[Mo+2]`, the GI50 is > 100 µM and the TGI is > 100 µM.

In the case of `CC1(C)OC2COC3(CNO)OC(C)(C)OC3C2O1` (stereo not given), the TGI is > 100 µM.

With `CCOC(=O)C(=O)Nc1ccccc1C(F)(F)F`, the TGI was > 100 µM.

For `COc1ccc(Nc2nc3ccccc3nc2-c2cccs2)cc1`, the TGI was > 100 µM.

As to `CCOC(=O)/C(=C/c1cccc(OC)c1)N(CC)CC`, the TGI is > 100 µM.

Compound `Cc1nnc(N/N=C(/C(=O)C(C#N)c2ccccc2)C(C#N)c2ccccc2)n1N` (stereo not given) yielded a TGI of 5.65 µM.

Turning to `COc1c(Br)cc(Br)c(OC)c1-c1[nH]c(Br)c(Br)c1Br`, the TGI worked out at 31.6 µM.

`CCOC(=O)c1ccc(N[C@@H]2c3cc4c(cc3C(C3=CC(=O)C(=O)C(OC)=C3)[C@H]3C(=O)OCC32)OCO4)cc1` (stereo not given in full) came in with a TGI of 11.4 µM.

As for `NC(=O)/C=C/C(=O)O`, the TGI was > 5000 µM.

Consider `CC(CC(=O)Nc1ccc(NC(=O)CC(C)N=NC(N)=S)cc1)N=NC(N)=S` (stereo not given), for which the TGI is > 100 µM.

Take `Cc1c(C(=O)CSc2nc3ccccc3c(=O)n2-c2ccccc2)c(=O)n(-c2ccccc2)n1C`: the TGI is > 100 µM.

`CSc1c(C)c(C)nn1-c1ccccc1`: the TGI was > 100 µM.

Consider `CC(=O)OC1COC(n2c(=S)n(-c3ccccc3)c(=O)c3cc(Br)ccc32)C(OC(C)=O)C1OC(C)=O` (stereo not given), for which the TGI is > 100 µM.

As for `CC1=C(C(=O)Nc2ccccc2C)C(/C=C/c2ccccc2)C(C(=O)Nc2ccccc2C)=C(C)N1`, the TGI was > 100 µM.

As to `Cc1cn(C2OC(C)(CO)C(O)C2O)c(=O)[nH]c1=O` (stereo not given), the TGI was > 100 µM.

For `O=C1C=C(O)c2[nH]c(=O)ccc2C1=O`, the TGI is > 100 µM.

In the case of `O=c1ncccn1C1C=C(CO)C(O)C1O` (stereo not given), the TGI was > 50 µM.

As to `CCN(CC)CC(=O)N1CCc2c([nH]c3ccccc23)C1c1cccnc1` (stereo not given), the TGI was > 100 µM.

In turn, `O=c1c(Cl)c(Cl)cnn1CCc1ccncc1` returned a TGI of 33.7 µM.

As to `CCCCCCCCCCCCCC(=O)OCC1OC(=O)CC1O` (stereo not given), the TGI is > 100 µM.

For the compound `CC1(Cc2ccccc2)NC(=S)NC1=O` (stereo not given), the TGI was > 100 µM.

In another assay the test system is OVCAR-5 ovarian. The experiment in a line: NCI-60 cell line screen, 48 h.
For the compound `CC1(c2ccccc2)CC(c2ccccc2)=NO1` (stereo not given), the TGI is > 100 µM.

For the compound `COc1cccc(/C=C2\CCC(C)(CN(C)C)C2=O)c1` (stereo not given), the TGI was > 100 µM.

Consider `Cl[Si]1(Cl)Oc2ccccc2O[Si](Cl)(Cl)Oc2ccccc2O1`, for which the TGI is > 100 µM.

Consider `C[n+]1c2ccccc2cc2c(CNC(CCCN=C(N)N)C(=O)O)cccc21` (stereo not given), for which the GI50 is 14.4 µM and the TGI was found to be 27.4 µM.

As for `CC(=O)[O-].CC(=O)[O-].CC(=O)[O-].CC(=O)[O-].[Mo+2].[Mo+2]`, the GI50 is > 100 µM and the TGI was > 100 µM.

Turning to `C=CCC1[C@@H](C(C)(C)C(C(C)=O)C(=O)C(=O)OC)OC(C(C)(C)C)N1C(=O)OC` (stereo not given in full), the TGI is > 100 µM.

Regarding `CC1(C)OC2COC3(CNO)OC(C)(C)OC3C2O1` (stereo not given), the TGI is > 100 µM.

In the case of `CCOC(=O)C(=O)Nc1ccccc1C(F)(F)F`, the TGI is > 100 µM.

On to `COc1ccc(Nc2nc3ccccc3nc2-c2cccs2)cc1`, for which the TGI was > 100 µM.

Consider `CCOC(=O)/C(=C/c1cccc(OC)c1)N(CC)CC`, for which the TGI was > 100 µM.

`Cc1nnc(N/N=C(/C(=O)C(C#N)c2ccccc2)C(C#N)c2ccccc2)n1N` (stereo not given): the TGI was > 57 µM.

As for `COc1c(Br)cc(Br)c(OC)c1-c1[nH]c(Br)c(Br)c1Br`, the TGI was determined as 29 µM.

The compound `CCOC(=O)c1ccc(N[C@@H]2c3cc4c(cc3C(C3=CC(=O)C(=O)C(OC)=C3)[C@H]3C(=O)OCC32)OCO4)cc1` (stereo not given in full) returned a TGI of 36.1 µM.

Consider `NC(=O)/C=C/C(=O)O`, for which the TGI is > 5000 µM.

For the compound `CC(CC(=O)Nc1ccc(NC(=O)CC(C)N=NC(N)=S)cc1)N=NC(N)=S` (stereo not given), the TGI was > 100 µM.

For the compound `Cc1c(C(=O)CSc2nc3ccccc3c(=O)n2-c2ccccc2)c(=O)n(-c2ccccc2)n1C`, the TGI is > 100 µM.

On to `CSc1c(C)c(C)nn1-c1ccccc1`, for which the TGI is > 100 µM.

With `CC(=O)OC1COC(n2c(=S)n(-c3ccccc3)c(=O)c3cc(Br)ccc32)C(OC(C)=O)C1OC(C)=O` (stereo not given), the TGI was > 100 µM.

`CC1=C(C(=O)Nc2ccccc2C)C(/C=C/c2ccccc2)C(C(=O)Nc2ccccc2C)=C(C)N1`: the TGI is > 100 µM.

Regarding `COc1cc2cnc3c4ccccc4ccc3c2cc1OC`, the TGI was > 100 µM.

Regarding `Cc1cn(C2OC(C)(CO)C(O)C2O)c(=O)[nH]c1=O` (stereo not given), the TGI is > 100 µM.

On to `O=c1ncccn1C1C=C(CO)C(O)C1O` (stereo not given), for which the TGI was > 50 µM.

Regarding `CCN(CC)CC(=O)N1CCc2c([nH]c3ccccc23)C1c1cccnc1` (stereo not given), the TGI was > 100 µM.

With `O=c1c(Cl)c(Cl)cnn1CCc1ccncc1`, the TGI came out at 33.6 µM.

On to `CCCCCCCCCCCCCC(=O)OCC1OC(=O)CC1O` (stereo not given), for which the TGI was > 100 µM.

On to `CC1(Cc2ccccc2)NC(=S)NC1=O` (stereo not given), for which the TGI is > 100 µM.

For `COC1OC(C)C(OCc2ccccc2)C(OS(=O)(=O)c2ccc(C)cc2)C1OS(=O)(=O)c1ccc(C)cc1` (stereo not given), the TGI is > 100 µM.

Regarding `O=C1C2=C(c3ccccc31)C(c1ccccc1Cl)N1C(=O)CCSC1=N2` (stereo not given), the TGI is > 100 µM.

In a further assay the test system is NCI-H226 lung. Kind of assay: NCI-60 cell line screen, 48 h.
Turning to `CC1(c2ccccc2)CC(c2ccccc2)=NO1` (stereo not given), the TGI was > 100 µM.

Turning to `COc1cccc(/C=C2\CCC(C)(CN(C)C)C2=O)c1` (stereo not given), the TGI was > 100 µM.

As to `Cl[Si]1(Cl)Oc2ccccc2O[Si](Cl)(Cl)Oc2ccccc2O1`, the TGI is > 100 µM.

With `C[n+]1c2ccccc2cc2c(CNC(CCCN=C(N)N)C(=O)O)cccc21` (stereo not given), the GI50 is 7.76 µM; the TGI is 7.63 µM and 35.8 µM.

Regarding `CC(=O)[O-].CC(=O)[O-].CC(=O)[O-].CC(=O)[O-].[Mo+2].[Mo+2]`, the GI50 was > 100 µM and the TGI is > 100 µM.

Turning to `C=CCC1[C@@H](C(C)(C)C(C(C)=O)C(=O)C(=O)OC)OC(C(C)(C)C)N1C(=O)OC` (stereo not given in full), the TGI is > 100 µM.

For `CC1(C)OC2COC3(CNO)OC(C)(C)OC3C2O1` (stereo not given), the TGI was > 100 µM.

On to `CCOC(=O)C(=O)Nc1ccccc1C(F)(F)F`, for which the TGI is > 100 µM.

The values above are taken from PubChem BioAssay (NCI).
